In publication PMC4685510, “A Cell Biologist’s Field Guide to Aurora Kinase Inhibitors” (Frontiers in Oncology, 2015):
“Also recorded” adds a separate entry of the source. Like-named read-outs stand apart in the source and are kept apart here.

What was measured:
[1] = system: pH3(Ser 28) in HeLa cells; assay: Substrate phosphorylation immunofluorescence assay, pH3(Ser 28), HeLa; assay type: cell-based, human; settings: for pHistone H3 (Ser28) IC50: 8 h inhibitor treatment
Method: (§1) Asynchronous cells were incubated with vehicle (DMSO) or different inhibitor doses for 8 h and then fixed and labeled with a mixture of three antibodies directed against pLATS2(Ser 83), pH3(Ser 28), and MPM2 [which detects mitotic phosphoepitopes; ([86])]. While both the anti-pLATS2(Ser 83) and MPM2 antibodies are mouse monoclonals, they are of different IgG subclasses [IgG2b for anti-pLATS2(Ser 83) and IgG1 for MPM2], and can thus be detected with subclass-specific secondary antibodies (Table S3 in Supplementary Material).
(§2) Cells were imaged in 4 channels to visualize pLATS2(Ser 83), pH3(Ser 28), MPM2, and DNA (labeled with Hoechst) and mitotic cells were segmented based on their bright MPM2 labeling (Figure 3E). Intensity and area thresholds were set to select the pLATS2(Ser 83) foci and the pH3(Ser 28)-labeled chromatin in their respective channels in DMSO-treated control cells and the same thresholds were applied for inhibitor-treated cells. The mean fluorescence intensity per pixel was measured to assess the activities of the kinases targeting these two substrate phosphorylation sites.
(§3) After 8 h cells were fixed with 4% PFA for 20 min at room temperature. The fixed cells were washed with PBS. For immunostaining, cells were permeabilized and blocked with PBS containing 10% normal donkey serum (Jackson ImmunoResearch) and 0.1% Triton-X100 for 1 h at room temperature. Primary antibodies against phospho-LATS2 (Ser 83), phospho-histone H3(Ser 28), and anti-phospho-MPM2 (see Table S3 in Supplementary Material) were incubated for 1 h at room temperature. […] Cells were then washed twice with PBS containing 0.1% Triton-X100. […] Fifty fields per well were imaged with quadruplicate wells for each condition. Image analysis was done using the CV7000 image analysis software (Yokogawa Electric Corporation). Between 100 and 1,000 mitotic cells per condition were segmented applying object identification parameters to select for bright MPM2 labeling. Using a nuclear identifier protocol, minimum intensity thresholds were set for pLATS2(Ser 83) and the pH3(Ser 28) signals, and the resulting identified objects were eroded, dilated, and filtered for size by user-defined thresholds. […] The same thresholds were applied for all of the inhibitor-treated samples, which were processed, imaged, and analyzed in parallel with control DMSO-treated cells. Data were fit using a four-parameter, variable slope fit in Prism (GraphPad).

Aurora B = settings: cited from earlier work; for IC50: read-out: Aurora B IC50 (Published)
[2] = system: pH3(Ser 28) in U2OS cells; assay: Substrate phosphorylation immunofluorescence assay, pH3(Ser 28), U2OS; assay type: cell-based, human
Method: as §1, §2, §3

[3] = biological target: T1, 363 human kinases (including Aurora A/B/C) (Homo sapiens, UniProt P42681); assay: biochemical; assay type: biochemical; settings: TXK; for remaining activity at 0.1 µM: 100 nM; for remaining activity at 0.1 µM / remaining activity at 0.5 µM: read-out: % Enzyme Activity (relative to DMSO controls)
T1 sequence (P42681 1-527): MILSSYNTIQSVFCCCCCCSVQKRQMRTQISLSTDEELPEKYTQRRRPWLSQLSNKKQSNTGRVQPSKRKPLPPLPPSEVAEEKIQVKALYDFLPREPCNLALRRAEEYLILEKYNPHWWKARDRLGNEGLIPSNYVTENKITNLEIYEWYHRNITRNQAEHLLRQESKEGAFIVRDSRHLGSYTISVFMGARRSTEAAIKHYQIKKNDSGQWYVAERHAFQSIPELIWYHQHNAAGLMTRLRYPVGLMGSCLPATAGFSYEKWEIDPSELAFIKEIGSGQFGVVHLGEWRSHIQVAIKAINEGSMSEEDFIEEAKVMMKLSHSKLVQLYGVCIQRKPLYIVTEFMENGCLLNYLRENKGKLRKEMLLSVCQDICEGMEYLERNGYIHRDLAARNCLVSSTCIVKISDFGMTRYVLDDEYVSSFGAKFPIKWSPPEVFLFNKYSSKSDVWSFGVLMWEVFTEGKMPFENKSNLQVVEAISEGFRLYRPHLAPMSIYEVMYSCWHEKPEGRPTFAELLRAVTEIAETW
From the text: (§4) However, the Aurora A/B selectivity ratios derived from our in vitro and in vivo data can be compared to prioritize inhibitors.

[4] = biological target: 363 human kinases (including Aurora A/B/C) (Homo sapiens, UniProt Q9H0K1); assay: biochemical; assay type: biochemical; settings: SIK2; for remaining activity at 0.1 µM: 100 nM; for remaining activity at 0.1 µM / remaining activity at 0.5 µM: read-out: % Enzyme Activity (relative to DMSO controls)
Chain of 363 human kinases (including Aurora A/B/C) (Homo sapiens, UniProt Q9H0K1) (Q9H0K1 whole entry): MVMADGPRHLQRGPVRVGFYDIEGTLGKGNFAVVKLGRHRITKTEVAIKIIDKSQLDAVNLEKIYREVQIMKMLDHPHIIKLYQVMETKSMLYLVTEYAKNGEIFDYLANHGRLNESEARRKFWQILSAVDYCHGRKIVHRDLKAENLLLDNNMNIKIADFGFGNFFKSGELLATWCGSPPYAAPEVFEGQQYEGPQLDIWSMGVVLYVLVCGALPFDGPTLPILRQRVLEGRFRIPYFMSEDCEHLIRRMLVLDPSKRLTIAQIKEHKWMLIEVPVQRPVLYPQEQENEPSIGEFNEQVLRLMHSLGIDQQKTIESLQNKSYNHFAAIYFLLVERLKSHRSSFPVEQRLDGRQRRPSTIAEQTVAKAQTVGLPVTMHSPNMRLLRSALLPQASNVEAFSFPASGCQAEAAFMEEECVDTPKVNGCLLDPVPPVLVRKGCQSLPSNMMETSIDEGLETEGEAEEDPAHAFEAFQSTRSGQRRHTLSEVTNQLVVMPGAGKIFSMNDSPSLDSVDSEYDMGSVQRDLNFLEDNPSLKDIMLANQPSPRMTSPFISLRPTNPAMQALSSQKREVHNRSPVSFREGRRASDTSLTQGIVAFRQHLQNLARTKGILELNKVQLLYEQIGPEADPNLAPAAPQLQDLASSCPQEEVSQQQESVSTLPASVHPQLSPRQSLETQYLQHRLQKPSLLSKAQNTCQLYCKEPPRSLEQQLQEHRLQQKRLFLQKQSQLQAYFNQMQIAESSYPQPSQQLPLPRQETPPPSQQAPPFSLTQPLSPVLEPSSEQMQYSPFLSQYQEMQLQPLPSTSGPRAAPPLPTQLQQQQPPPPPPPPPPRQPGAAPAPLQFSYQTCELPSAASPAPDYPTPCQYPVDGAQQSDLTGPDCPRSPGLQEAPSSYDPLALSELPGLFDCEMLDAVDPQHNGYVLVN
From the text: as §4

[5] = biological target: T2, 363 human kinases (including Aurora A/B/C) (Homo sapiens, UniProt P42680); assay: biochemical; assay type: biochemical; settings: TEC; for remaining activity at 0.1 µM: 100 nM; for remaining activity at 0.1 µM / remaining activity at 0.5 µM: read-out: % Enzyme Activity (relative to DMSO controls)
T2 sequence (P42680 1-631): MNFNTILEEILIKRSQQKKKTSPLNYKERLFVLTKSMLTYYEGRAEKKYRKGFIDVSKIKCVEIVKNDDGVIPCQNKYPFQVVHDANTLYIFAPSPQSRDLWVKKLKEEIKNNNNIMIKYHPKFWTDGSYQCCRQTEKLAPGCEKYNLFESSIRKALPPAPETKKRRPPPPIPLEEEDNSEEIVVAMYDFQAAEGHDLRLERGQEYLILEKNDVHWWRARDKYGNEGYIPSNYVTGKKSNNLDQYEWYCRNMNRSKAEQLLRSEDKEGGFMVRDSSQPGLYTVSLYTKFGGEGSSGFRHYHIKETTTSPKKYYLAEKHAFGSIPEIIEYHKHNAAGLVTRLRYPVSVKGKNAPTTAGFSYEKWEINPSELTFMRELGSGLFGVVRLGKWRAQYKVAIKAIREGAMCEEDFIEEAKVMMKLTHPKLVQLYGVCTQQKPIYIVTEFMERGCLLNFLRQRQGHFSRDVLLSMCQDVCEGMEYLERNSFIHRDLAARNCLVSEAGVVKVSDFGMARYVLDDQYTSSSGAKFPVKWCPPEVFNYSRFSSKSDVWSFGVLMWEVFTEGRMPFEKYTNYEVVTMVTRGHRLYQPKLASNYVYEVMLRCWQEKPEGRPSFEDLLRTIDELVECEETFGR
From the text: as §4

[6] = biological target: 363 human kinases (including Aurora A/B/C) (Homo sapiens, UniProt P53667); assay: biochemical; assay type: biochemical; settings: LIMK1; for remaining activity at 0.1 µM: 100 nM; for remaining activity at 0.1 µM / remaining activity at 0.5 µM: read-out: % Enzyme Activity (relative to DMSO controls)
Chain of 363 human kinases (including Aurora A/B/C) (Homo sapiens, UniProt P53667) (P53667 whole entry): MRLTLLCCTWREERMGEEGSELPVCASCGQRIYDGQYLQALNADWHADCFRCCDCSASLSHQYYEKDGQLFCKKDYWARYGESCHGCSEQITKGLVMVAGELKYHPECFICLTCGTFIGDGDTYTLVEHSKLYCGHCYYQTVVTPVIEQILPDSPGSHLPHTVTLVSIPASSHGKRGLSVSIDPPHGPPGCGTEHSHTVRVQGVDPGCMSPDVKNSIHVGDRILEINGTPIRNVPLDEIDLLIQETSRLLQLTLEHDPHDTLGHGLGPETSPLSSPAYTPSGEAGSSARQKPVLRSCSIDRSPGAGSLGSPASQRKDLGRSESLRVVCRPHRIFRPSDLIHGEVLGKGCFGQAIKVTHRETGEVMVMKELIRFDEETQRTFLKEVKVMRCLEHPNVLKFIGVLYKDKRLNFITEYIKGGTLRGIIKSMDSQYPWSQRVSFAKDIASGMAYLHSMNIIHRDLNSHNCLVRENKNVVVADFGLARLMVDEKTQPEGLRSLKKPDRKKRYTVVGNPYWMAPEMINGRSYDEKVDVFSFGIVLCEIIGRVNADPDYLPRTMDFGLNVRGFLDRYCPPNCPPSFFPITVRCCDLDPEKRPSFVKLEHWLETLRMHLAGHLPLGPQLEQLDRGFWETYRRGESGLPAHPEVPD
From the text: as §4

[7] = biological target: T3, 363 human kinases (including Aurora A/B/C) (Homo sapiens, UniProt Q9BZL6); assay: biochemical; assay type: biochemical; settings: PKD2/PRKD2; for remaining activity at 0.1 µM: 100 nM; for remaining activity at 0.1 µM / remaining activity at 0.5 µM: read-out: % Enzyme Activity (relative to DMSO controls)
T3 sequence (Q9BZL6 1-878): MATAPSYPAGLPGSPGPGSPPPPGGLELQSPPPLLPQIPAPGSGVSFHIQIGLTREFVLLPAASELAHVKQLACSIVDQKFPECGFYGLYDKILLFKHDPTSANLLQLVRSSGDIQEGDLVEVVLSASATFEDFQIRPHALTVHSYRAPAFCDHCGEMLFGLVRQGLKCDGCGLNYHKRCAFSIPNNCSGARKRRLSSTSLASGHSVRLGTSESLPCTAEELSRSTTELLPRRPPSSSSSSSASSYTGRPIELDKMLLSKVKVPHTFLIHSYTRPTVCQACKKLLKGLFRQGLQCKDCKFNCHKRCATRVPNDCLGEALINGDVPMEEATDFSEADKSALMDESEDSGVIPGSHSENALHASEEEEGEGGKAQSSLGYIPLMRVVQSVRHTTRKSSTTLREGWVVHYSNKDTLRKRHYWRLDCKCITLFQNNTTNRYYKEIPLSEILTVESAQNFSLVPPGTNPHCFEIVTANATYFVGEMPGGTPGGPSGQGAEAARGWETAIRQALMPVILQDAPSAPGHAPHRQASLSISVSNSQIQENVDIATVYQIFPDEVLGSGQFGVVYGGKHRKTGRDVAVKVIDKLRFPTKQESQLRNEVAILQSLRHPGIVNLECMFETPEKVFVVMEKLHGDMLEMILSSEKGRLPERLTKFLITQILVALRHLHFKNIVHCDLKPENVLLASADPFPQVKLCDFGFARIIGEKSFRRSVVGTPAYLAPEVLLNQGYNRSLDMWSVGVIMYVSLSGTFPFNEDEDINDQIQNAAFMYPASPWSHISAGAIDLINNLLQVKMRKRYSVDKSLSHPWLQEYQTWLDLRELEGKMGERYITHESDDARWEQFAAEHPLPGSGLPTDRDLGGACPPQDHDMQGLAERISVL
From the text: as §4

[8] = biological target: 363 human kinases (including Aurora A/B/C) (Homo sapiens, UniProt P34947); assay: biochemical; assay type: biochemical; settings: GRK5; for remaining activity at 0.1 µM: 100 nM; for remaining activity at 0.1 µM / remaining activity at 0.5 µM: read-out: % Enzyme Activity (relative to DMSO controls)
Chain of 363 human kinases (including Aurora A/B/C) (Homo sapiens, UniProt P34947) (P34947 whole entry): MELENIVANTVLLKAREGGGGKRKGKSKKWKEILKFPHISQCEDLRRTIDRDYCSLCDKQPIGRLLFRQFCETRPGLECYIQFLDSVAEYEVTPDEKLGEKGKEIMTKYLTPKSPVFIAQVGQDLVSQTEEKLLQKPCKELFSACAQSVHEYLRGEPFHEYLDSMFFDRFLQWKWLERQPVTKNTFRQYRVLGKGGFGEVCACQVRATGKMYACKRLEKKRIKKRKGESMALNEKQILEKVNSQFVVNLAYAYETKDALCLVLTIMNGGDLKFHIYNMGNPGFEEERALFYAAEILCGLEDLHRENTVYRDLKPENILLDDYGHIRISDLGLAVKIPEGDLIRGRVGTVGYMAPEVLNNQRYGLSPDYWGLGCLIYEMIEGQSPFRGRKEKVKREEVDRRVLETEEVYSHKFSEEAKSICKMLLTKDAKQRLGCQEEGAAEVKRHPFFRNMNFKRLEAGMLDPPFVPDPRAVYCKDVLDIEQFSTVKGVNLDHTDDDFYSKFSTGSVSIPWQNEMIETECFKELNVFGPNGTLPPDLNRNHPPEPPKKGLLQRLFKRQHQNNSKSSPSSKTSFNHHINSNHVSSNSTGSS
From the text: as §4

[9] = biological target: 363 human kinases (including Aurora A/B/C) (Homo sapiens, UniProt Q96RR4); assay: biochemical; assay type: biochemical; settings: CAMKK2, [ATP] 30 µM; for remaining activity at 0.1 µM: 100 nM; for remaining activity at 0.1 µM / remaining activity at 0.5 µM: read-out: % Enzyme Activity (relative to DMSO controls)
Chain of 363 human kinases (including Aurora A/B/C) (Homo sapiens, UniProt Q96RR4) (Q96RR4 whole entry): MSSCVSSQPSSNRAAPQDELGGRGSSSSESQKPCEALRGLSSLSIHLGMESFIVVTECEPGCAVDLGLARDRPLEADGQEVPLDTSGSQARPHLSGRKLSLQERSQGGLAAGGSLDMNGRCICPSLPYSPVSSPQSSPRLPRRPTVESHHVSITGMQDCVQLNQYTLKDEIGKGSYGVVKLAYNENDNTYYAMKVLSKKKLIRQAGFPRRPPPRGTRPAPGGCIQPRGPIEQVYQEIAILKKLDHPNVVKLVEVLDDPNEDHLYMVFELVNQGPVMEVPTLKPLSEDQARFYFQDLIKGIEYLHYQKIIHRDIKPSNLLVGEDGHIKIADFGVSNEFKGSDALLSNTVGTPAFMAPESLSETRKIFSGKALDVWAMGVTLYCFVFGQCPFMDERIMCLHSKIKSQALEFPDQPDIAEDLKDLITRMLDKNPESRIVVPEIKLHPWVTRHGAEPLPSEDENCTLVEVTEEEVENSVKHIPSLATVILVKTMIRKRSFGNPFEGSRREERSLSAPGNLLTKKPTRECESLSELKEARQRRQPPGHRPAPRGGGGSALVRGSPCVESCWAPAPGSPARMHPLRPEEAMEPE
From the text: as §4

[10] = biological target: 363 human kinases (including Aurora A/B/C) (Homo sapiens, UniProt P50750); assay: biochemical; assay type: biochemical; settings: [ATP] 10 µM; for remaining activity at 0.1 µM: 100 nM; for remaining activity at 0.1 µM / remaining activity at 0.5 µM: read-out: % Enzyme Activity (relative to DMSO controls); for remaining activity at 0.5 µM / % Enzyme Activity (relative to DMSO controls): 500 nM
Chain of 363 human kinases (including Aurora A/B/C) (Homo sapiens, UniProt P50750) (P50750 whole entry): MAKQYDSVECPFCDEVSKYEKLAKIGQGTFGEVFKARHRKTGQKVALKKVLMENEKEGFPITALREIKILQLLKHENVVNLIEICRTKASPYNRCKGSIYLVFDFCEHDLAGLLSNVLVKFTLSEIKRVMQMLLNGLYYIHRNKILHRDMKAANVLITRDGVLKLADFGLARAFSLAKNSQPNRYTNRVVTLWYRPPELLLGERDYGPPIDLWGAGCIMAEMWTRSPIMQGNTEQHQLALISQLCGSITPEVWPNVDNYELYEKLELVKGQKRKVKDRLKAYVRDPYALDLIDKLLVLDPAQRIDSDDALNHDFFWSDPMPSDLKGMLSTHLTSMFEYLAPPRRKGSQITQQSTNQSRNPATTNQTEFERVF
From the text: as §4

[11] = biological target: 363 human kinases (including Aurora A/B/C) (Homo sapiens, UniProt Q08345); assay: biochemical; assay type: biochemical; settings: DDR1, [ATP] 100 µM; for remaining activity at 0.1 µM: 100 nM; for remaining activity at 0.1 µM / remaining activity at 0.5 µM: read-out: % Enzyme Activity (relative to DMSO controls)
Chain of 363 human kinases (including Aurora A/B/C) (Homo sapiens, UniProt Q08345) (Q08345 19-913): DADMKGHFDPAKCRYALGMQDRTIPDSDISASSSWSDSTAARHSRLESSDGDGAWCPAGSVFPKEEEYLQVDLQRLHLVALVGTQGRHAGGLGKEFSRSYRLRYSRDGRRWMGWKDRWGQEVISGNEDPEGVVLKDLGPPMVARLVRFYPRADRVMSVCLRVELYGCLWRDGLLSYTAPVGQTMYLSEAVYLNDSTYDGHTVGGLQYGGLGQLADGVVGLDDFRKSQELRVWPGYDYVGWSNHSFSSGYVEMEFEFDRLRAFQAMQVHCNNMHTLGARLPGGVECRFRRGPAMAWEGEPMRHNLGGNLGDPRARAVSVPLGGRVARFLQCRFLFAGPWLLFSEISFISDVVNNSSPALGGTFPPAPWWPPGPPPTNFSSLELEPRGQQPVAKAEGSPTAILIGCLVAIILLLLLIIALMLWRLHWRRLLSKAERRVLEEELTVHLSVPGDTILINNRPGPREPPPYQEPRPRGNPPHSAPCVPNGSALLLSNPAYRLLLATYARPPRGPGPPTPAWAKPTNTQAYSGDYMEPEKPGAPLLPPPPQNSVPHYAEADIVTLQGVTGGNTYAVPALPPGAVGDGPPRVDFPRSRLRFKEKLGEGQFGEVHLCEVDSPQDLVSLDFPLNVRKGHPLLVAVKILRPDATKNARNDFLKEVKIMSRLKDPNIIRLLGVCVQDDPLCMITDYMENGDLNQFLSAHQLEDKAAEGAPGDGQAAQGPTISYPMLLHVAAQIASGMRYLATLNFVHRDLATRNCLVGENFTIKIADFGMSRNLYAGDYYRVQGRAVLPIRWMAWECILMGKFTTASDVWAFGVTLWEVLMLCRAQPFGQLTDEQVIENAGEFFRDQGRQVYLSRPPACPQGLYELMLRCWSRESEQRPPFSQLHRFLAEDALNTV
From the text: as §4

[12] = Homo sapiens, 8 h, read-out: pHistone H3 (Ser28) IC50

| SMILES | remaining activity at 0.1 µM [3] | remaining activity at 0.1 µM [4] | remaining activity at 0.1 µM [5] | remaining activity at 0.1 µM [6] | remaining activity at 0.1 µM [7] | remaining activity at 0.1 µM [8] | remaining activity at 0.1 µM [9] | remaining activity at 0.1 µM ([10]; CDK9/cyclin K) | remaining activity at 0.1 µM ([10]; CDK9/cyclin T1) | remaining activity at 0.1 µM [11] | pHistone H3 (Ser28) IC50 [1] | remaining activity at 0.5 µM ([3]; 500 nM) | remaining activity at 0.5 µM ([4]; 500 nM) | remaining activity at 0.5 µM ([5]; 500 nM) | remaining activity at 0.5 µM ([6]; 500 nM) | remaining activity at 0.5 µM ([7]; 500 nM) | remaining activity at 0.5 µM ([8]; 500 nM) | remaining activity at 0.5 µM ([9]; 500 nM) | remaining activity at 0.5 µM ([10]; CDK9/cyclin K) | remaining activity at 0.5 µM ([10]; CDK9/cyclin T1) | also measured |
| --- | --- | --- | --- | --- | --- | --- | --- | --- | --- | --- | --- | --- | --- | --- | --- | --- | --- | --- | --- | --- | --- |
| CCn1cc(-c2ccnc3[nH]c(-c4cccc(CN(C)C)c4)cc23)c(-c2ccc(NC(=O)N(C)C)cc2)n1 [GSK1070916] | 86.3% | 40% | 100% | 96.8% | 93.3% | 96.3% | 76.9% | 102% | 91.5% | 26.2% | – | – | – | – | – | – | – | – | – | – | Concentration completely eliminating pH3(Ser 28) labeling without affecting pLATS2(Ser 83) labeling [1]: < 100 nM; IC50 [1, 12]: 6 nM; Ki (Aurora B; ref 61, read-out: Aurora B-INCENP Ki (Published)): 0.38 nM; IC50 [2, 12]: 8 nM |
| O=C(O)[C@]1(Cc2cccc(Nc3nccs3)n2)CC[C@@H](Oc2cccc(Cl)c2F)CC1 [MK-5108] | 35.6% | 96.5% | 68.8% | 96.9% | 98.5% | 102% | 111% | 94% | 124% | 7.97% | NE (9 μM); also recorded: NE@9 μM | 10.5% | 93.3% | 40.6% | 69% | 101% | 90.9% | 87.7% | 106% | 115% | IC50 (Aurora B; ref 56): 14.1 nM; inhibition at 15 µM ([2]; Homo sapiens, read-out: pHistone H3 (Ser28) inhibition at highest concentration tested): 20%; remaining activity at 0.5 µM ([11]; 500 nM): 1.89% |
| O=C(c1cccc(Cl)c1F)N1CCN(Cc2cccc(Nc3nccs3)n2)CC1 [MK-8745] | – | – | – | – | – | – | – | – | – | – | NE (9 μM); also recorded: NE@9 µM | 80.3% | 98.7% | 102% | 101% | 98.1% | 95.8% | 204% | 109% | 198% | IC50 (Aurora B; ref 57): 280 nM; pHistone H3 (Ser28) IC50 ([2]; 8 h inhibitor treatment): NE@15 µM; % Enzyme Activity (relative to DMSO controls) ([3]; 500 nM): 80.24%; % Enzyme Activity (relative to DMSO controls) ([4]; 500 nM): 96.62%; % Enzyme Activity (relative to DMSO controls) ([5]; 500 nM): 100.04%; % Enzyme Activity (relative to DMSO controls) ([6]; 500 nM): 99.25%; % Enzyme Activity (relative to DMSO controls) ([7]; 500 nM): 96.92%; % Enzyme Activity (relative to DMSO controls) ([8]; 500 nM): 94.27%; % Enzyme Activity (relative to DMSO controls) ([9]; 500 nM): 199.08%; % Enzyme Activity (relative to DMSO controls) ([10]; CDK9/cyclin K): 108.88%; % Enzyme Activity (relative to DMSO controls) ([10]; CDK9/cyclin T1): 190.89%; % Enzyme Activity (relative to DMSO controls) ([11]; 500 nM): 19.23%; remaining activity at 0.5 µM ([11]; 500 nM): 19.7% |
